From patent US9914718B2, “Anhydrous crystalline form of S-equol” (Ausio Pharmaceuticals, LLC, priority 2014, dated 2018) come the findings set out here.

A short description of this series: Long-term stability testing at room temperature storage conditions. The format is physicochemical. As for the experimental part: Stability testing: To access its ability to maintain a desired chemical integrity, the stability of anhydrous crystalline polymorph of S-equol was evaluated for a period representative of the shelf-life of a pharmaceutical formulation. Anhydrous crystalline polymorph of S-equol was maintained at room temperature storage conditions, and evaluated for purity and water content.

With `Oc1ccc([C@H]2COc3cc(O)ccc3C2)cc1` [anhydrous crystalline S-equol, S-equol], where the note is “0 days”, the Appearance entry is reported as “white to brown”, the Purity worked out at 100% HPLC area % and the “Water Content” value is on record as less than 0.1 g/100 g. For the setting “626 days”, the Appearance entry is recorded as “white to brown”, the Purity is 100% HPLC area % and the “Water Content” value was determined as 0.05 g/100 g. Moreover, under “867 days”, the Appearance entry is given as “white to brown”, the Purity stood at 100% HPLC area % and the “Water Content” value is 0.05 g/100 g.
